# Test results: ChEMBL document CHEMBL3044638, “Biological evaluation of imidazole derivatives as inhibitors of hydroperoxide lyase, a key enzyme in plant volatile biosynthesis” (J Pestic Sci, 2011)
# What was measured:
# [1] = molecular target: T1, Fatty acid hydroperoxide lyase, chloroplastic (Solanum lycopersicum, UniProt K4CF70); assay: Binding affinity to recombinant Solanum lycopersicum (tomato) fatty acid 13-hydroperoxide lyase by optical difference spectroscopy
# T1 sequence (K4CF70 whole entry): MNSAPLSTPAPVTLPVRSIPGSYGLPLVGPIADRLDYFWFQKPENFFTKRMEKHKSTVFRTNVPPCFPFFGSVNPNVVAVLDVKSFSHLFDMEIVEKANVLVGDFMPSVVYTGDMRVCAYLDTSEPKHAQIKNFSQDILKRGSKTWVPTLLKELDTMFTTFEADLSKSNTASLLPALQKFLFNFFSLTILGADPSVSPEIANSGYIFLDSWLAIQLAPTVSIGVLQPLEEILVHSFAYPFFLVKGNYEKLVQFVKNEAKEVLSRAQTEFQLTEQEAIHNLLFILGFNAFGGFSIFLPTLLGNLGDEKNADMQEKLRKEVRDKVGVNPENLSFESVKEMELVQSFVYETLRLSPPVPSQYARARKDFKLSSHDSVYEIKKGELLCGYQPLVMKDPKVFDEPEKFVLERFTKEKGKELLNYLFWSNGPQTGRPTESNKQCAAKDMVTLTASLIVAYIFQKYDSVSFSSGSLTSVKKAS
# [2] = molecular target: T1, Fatty acid hydroperoxide lyase, chloroplastic; assay: Inhibition of recombinant Solanum lycopersicum (tomato) fatty acid 13-hydroperoxide lyase using (13S)-HPOT substrate by spectrophotometry
Kd [1],IC50 [2],SMILES
13.5 µM,39 µM,Clc1ccc(C(Cn2ccnc2)OCc2ccccc2)c(Cl)c1 (centres undefined)
,> 100 µM,Clc1ccc(C(Cn2ccnc2)OCc2ccccc2Cl)c(Cl)c1 (centres undefined)
,> 100 µM,Clc1cccc(COC(Cn2ccnc2)c2ccc(Cl)cc2Cl)c1 (centres undefined)
,> 100 µM,Clc1ccc(C(Cn2ccnc2)OCc2ccc(Cl)nc2)c(Cl)c1 (centres undefined)
,46 µM,Clc1ccc(C(Cn2ccnc2)OCc2cccc(Cl)c2Cl)c(Cl)c1 (centres undefined)
,> 100 µM,Clc1ccc(C(Cn2ccnc2)OCc2ccc(Cl)c(Cl)c2)c(Cl)c1 (centres undefined)
,> 100 µM,Fc1ccc(COC(Cn2ccnc2)c2ccc(Cl)cc2Cl)c(F)c1 (centres undefined)
,> 100 µM,Fc1ccc(F)c(COC(Cn2ccnc2)c2ccc(Cl)cc2Cl)c1 (centres undefined)
,> 100 µM,Fc1ccc(COC(Cn2ccnc2)c2ccc(Cl)cc2Cl)cc1F (centres undefined)
,> 100 µM,Fc1cc(F)cc(COC(Cn2ccnc2)c2ccc(Cl)cc2Cl)c1 (centres undefined)
,> 100 µM,Clc1ccc(C(Cn2ccnc2)OCc2c(Cl)cccc2Cl)c(Cl)c1 (centres undefined) [ISOCONAZOLE]
,65 µM,Clc1ccc(COC(Cn2ccnc2)c2ccc(Cl)cc2Cl)c(Cl)c1 (centres undefined) [MICONAZOLE]
,50 µM,CC(Cc1ccc(O)c(O)c1)C(C)Cc1ccc(O)c(O)c1 (centres undefined) [NORDIHYDROGUAIARETIC ACID]
